This is an account of results in ChEMBL document CHEMBL3797203, “Plasmin inhibitors with hydrophobic amino acid-based linker between hydantoin moiety and benzimidazole scaffold enhance inhibitory activity” (Bioorg Med Chem Lett, 2016).

Where only a bound is given, the exact number is not on record here.

Assay [1] deals with Urokinase-type plasminogen activator (Homo sapiens, UniProt P00749). Kind of assay: Inhibition of human urokinase using Pyr-Gly-Arg-MCA as substrate by fluorescence assay.
Assay [2] deals with Plasminogen (Homo sapiens, UniProt P00747). Description: Inhibition of human plasmin using Boc-Val-Leu-Lys-MCA as substrate by fluorescence assay.
Sequence of Plasminogen (P00747 97-580 limits assumed): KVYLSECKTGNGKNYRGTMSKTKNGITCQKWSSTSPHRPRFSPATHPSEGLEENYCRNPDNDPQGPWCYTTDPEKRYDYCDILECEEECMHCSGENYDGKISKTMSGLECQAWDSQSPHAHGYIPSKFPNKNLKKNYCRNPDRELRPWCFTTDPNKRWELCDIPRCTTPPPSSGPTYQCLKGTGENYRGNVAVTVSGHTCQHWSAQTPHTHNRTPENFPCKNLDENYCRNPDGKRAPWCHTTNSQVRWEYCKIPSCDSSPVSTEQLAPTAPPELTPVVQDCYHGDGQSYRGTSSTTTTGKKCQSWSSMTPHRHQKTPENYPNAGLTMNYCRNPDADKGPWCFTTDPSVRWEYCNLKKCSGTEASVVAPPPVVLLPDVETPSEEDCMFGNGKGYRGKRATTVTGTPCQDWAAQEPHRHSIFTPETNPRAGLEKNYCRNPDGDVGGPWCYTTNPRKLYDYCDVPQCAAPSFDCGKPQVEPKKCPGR
Sequence of Plasminogen (P00747 581-810 limits assumed): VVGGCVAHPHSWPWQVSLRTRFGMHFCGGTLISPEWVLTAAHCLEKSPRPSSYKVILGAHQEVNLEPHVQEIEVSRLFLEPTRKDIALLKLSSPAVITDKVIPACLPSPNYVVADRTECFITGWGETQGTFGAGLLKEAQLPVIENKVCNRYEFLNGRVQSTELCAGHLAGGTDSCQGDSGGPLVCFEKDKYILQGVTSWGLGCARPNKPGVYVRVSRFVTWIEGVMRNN
Assay [3] is filed under the species Homo sapiens. Kind of assay: Selectivity ratio of IC50 for human urokinase to IC50 for human plasmin.

As usually defined, the IC50 is the concentration needed to halve the response being measured. Read a low IC50 as greater potency. For the compound `CC(C)C[C@H](c1nc2ccc(C(=O)N[C@H](C#N)CCCCN)cc2n1C)N1C(=O)CN(c2ccc(Oc3ccccc3)cc2)C1=O`, the IC50 amounted to 150 µM in assay [1] and 7.7 µM in assay [2].
As for `CC[C@@H](C)[C@H](c1nc2ccc(C(=O)N[C@H](C#N)CCCCN)cc2n1C)N1C(=O)CN(c2ccc(Oc3ccccc3)cc2)C1=O`, the IC50 was above 200 µM in assay [1] and 6.7 µM in assay [2].
For the compound `CC(C)[C@H](c1nc2ccc(C(=O)N[C@H](C#N)CCCCN)cc2n1C)N1C(=O)CN(c2ccc(Oc3ccccc3)cc2)C1=O`, the half-inhibitory concentration (IC50) in assay [1] was above 200 µM; in assay [2], 4.9 µM. Moreover, in assay [3], the Ratio IC50 amounted to 40.
Turning to `Cn1c(CN2C(=O)CN(c3ccc(F)cc3)C2=O)nc2ccc(C(=O)N[C@H](C#N)CCCCN)cc21`, the IC50 in assay [1] is above 200 µM.
Turning to `C[C@@H](c1nc2ccc(C(=O)N[C@H](C#N)CCCCN)cc2n1C)N1C(=O)CN(c2ccc(Oc3ccccc3)cc2)C1=O`, the values for the concentration for half-maximal inhibition (IC50) in assay [1] and in assay [2] were above 200 µM and 11 µM, respectively.
On the same counts, the results for `C[C@H](c1nc2ccc(C(=O)N[C@H](C#N)CCCCN)cc2n1C)N1C(=O)CN(c2ccc(F)cc2)C1=O` are above 200 µM and 45 µM.
As to `C[C@H](c1nc2ccc(C(=O)N[C@H](C#N)CCCCN)cc2n1C)N1C(=O)CN(c2ccc(Oc3ccncc3)cc2)C1=O`, the IC50 in assay [1] is above 200 µM; in assay [2], 12 µM.
On the same counts, the results for `C[C@H](c1nc2ccc(C(=O)N[C@H](C#N)CCCCN)cc2n1C)N1C(=O)CN(c2ccc(Oc3ccccc3)cc2)C1=O` are 160 µM and 19 µM.
Taken in the same sequence, the figures for `C[C@@H](c1nc2ccc(C(=O)N[C@H](C#N)CCCCN)cc2n1C)N1C(=O)CN(c2ccc(Oc3ccncc3)cc2)C1=O` were above 200 µM and 19 µM.
Taken in the same sequence, the figures for `C[C@@H](c1nc2ccc(C(=O)N[C@H](C#N)CCCCN)cc2n1C)N1C(=O)CN(c2ccc(F)cc2)C1=O` were above 200 µM and 25 µM.
`CC(C)[C@@H](c1nc2ccc(C(=O)N[C@H](C#N)CCCCN)cc2n1C)N1C(=O)CN(c2ccc(Oc3ccccc3)cc2)C1=O`: the values for the half-inhibitory concentration (IC50) in assay [1] and in assay [2] were above 200 µM and 28 µM, respectively.
